# Results: patent US8901118B2, “Compounds and methods for kinase modulation, and indications therefor” (Plexxikon Inc., priority 2010, dated 2014)
# What was measured:
# [1] = molecular target: TrkA kinase (Homo sapiens, UniProt P04629); assay: TrkA kinase biochemical activity assay (AlphaScreen); settings: 100 μM ATP; read-out: Biochemical Inhibition IC50 TrkA
# In short: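 Recombinant TrkA with 30 nM biotin-(E4Y)10 and 100 μM ATP in 25 mM Hepes pH 7.5, 10 mM MnCl2, 5% DMSO, 40 min at room temperature. Phosphorylation read by AlphaScreen (streptavidin donor, PY20 acceptor beads); IC50 from signal vs compound concentration. TrkC run similarly.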
# [2] = molecular target: T1, BCR-FMS BaF3 cells (Homo sapiens, UniProt P07333); assay: BaF3 BCR-FMS cell proliferation assay (ATPlite); assay type: cell-based; settings: read-out: Inhibition of Cell Proliferation IC50, BCR/BaF3 Fms
# T1 construct: fused on or other part: P11274 (Breakpoint cluster region protein)
# T1 sequence (P07333 582-910): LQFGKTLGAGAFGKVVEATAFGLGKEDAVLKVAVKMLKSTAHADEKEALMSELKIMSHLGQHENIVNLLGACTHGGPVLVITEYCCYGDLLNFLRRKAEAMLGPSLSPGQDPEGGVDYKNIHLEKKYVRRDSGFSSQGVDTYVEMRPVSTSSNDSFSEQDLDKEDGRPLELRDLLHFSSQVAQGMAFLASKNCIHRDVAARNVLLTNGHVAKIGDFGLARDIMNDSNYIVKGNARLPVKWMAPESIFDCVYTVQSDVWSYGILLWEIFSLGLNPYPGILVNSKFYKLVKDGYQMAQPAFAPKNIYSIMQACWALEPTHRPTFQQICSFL
# In short: (§1)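 BaF3 cells expressing BCR fusions were plated at 10,000 cells/well without IL-3, and MV-4-11 cells at 25,000 cells/well. Cells were treated the next day with an 8-point 1:3 dilution series (top 10 μM final) and incubated 3 days at 37 °C. ATPlite luminescence gave cell number, from which IC50 was fitted.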
# [3] = molecular target: T2, BCR-NTRK3 BaF3 cells (Homo sapiens, UniProt Q16288); assay: BaF3 BCR-NTRK3 cell proliferation assay (ATPlite); assay type: cell-based; settings: read-out: Inhibition of Cell Proliferation IC50, BCR/BaF3 TrkC
# T2 construct: fused on or other part: P11274 (Breakpoint cluster region protein)
# T2 sequence (Q16288 whole entry, the tested form may be a part): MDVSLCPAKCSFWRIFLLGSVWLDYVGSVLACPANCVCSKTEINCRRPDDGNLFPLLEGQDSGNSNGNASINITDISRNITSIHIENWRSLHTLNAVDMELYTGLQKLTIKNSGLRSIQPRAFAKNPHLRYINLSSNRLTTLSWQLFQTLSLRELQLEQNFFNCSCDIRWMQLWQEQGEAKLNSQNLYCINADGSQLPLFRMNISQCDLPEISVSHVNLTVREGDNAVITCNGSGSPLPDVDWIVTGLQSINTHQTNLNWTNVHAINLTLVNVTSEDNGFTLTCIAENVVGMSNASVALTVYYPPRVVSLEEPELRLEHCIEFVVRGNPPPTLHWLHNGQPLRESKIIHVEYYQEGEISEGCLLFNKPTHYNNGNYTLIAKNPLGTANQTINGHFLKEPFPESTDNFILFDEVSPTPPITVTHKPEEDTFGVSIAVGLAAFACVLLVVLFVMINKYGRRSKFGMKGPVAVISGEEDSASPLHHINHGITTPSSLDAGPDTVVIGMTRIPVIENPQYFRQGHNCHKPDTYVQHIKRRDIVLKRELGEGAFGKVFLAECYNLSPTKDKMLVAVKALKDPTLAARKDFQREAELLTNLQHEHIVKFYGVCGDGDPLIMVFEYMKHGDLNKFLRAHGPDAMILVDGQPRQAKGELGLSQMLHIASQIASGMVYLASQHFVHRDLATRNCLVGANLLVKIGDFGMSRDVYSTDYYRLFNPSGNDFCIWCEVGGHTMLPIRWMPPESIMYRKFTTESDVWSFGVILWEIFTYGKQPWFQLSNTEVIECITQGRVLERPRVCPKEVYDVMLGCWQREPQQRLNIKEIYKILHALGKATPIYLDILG
# In short: as §1
# [4] = test system: SKNSH cells; assay: SKNSH (human neuroblastoma) cell proliferation assay (ATPlite); assay type: cell-based; settings: SK-N-SH, read-out: Inhibition of Cell Proliferation IC50, SKNSH
# Experimental: Compounds are assessed in a variety of cell based assays. For example BaF3 cells engineered with any of BCR-FMS, BCR-KIT, BCR-FLT3, BCR-NTRK1, BCR-NTRK2, and BCR-NTRK3, are used in cell proliferation assays to assess inhibitory activity of Fms, Kit, Flt-3, TrkA, TrkB, and TrkC, respectively. An MV-4-11 (leukemia) cell proliferation assay is used to assess inhibitory activity in Flt-3, and SKNSH (human neuroblastoma) cell proliferation assay is used to assess efficacy of Fms/Trk inhibitors. Additional cells may be assayed similarly to assess the efficacy of Fms/Trk inhibitors, such as MiaPaCa (human pancreatic cancer) and Capan-1 (human pancreatic carcinoma) cells. Reagent and assay conditions are as follows: • BaF3 cells: • Maintained in RPMI containing 10% FBS, 1% PenStrep, 1% NEAA, and 1% L-Glutamine, supplemented with 1 mg/mL G418 and 5% WEHI-CM (or recombinant murine IL-3). • Confluent cells are split 1:50 to 1:100 every 3-4 days. • MV-4-11 cells: • Maintained in Iscove's Modified Dulbecco's Medium containing 10% FBS. • Confluent cells are split 1:4 every 3-4 days. • SKNSH cells: RPMI containing 10% FBS. On day 1, cells are counted, then centrifuged in a conical tube for 5 minutes at 1000 rpm. The supernatant is removed and cells are re-suspended as follows: • BaF3: resuspend in growth media +1 mg/mL G418 (without WEHFIL-3) to 2×10^5 cells/mL. • MV-4-11: resuspend in growth media to 5×10^5 cells/mL. • SKNSH: resuspend in growth media to 2×10^4 cells/mL. The cells are plated (50 μL, 150 μL for SKNSH cells) in each well of a 96-well dish (Corning 3610) and incubated at 37° C. in 5% CO2 overnight, cells plated to a final concentration of cells as follows: • BaF3: 10,000 cells per well. • MV-4-11: 25,000 cells per well. • SKNSH: 3,000 cells per well. On day 2, compound at a maximum concentration of 5 mM is serially diluted 1:3 for a total of 8 point titration with DMSO as a control. A 1 μL aliquot of each dilution point is added to 249 μL growth media and 50 μL is added to a well containing cells, providing 10 μM compound for the maximum concentration point. The cells are incubated for 3 days at 37° C. in 5% CO2. For SKNSH cells, a 0.75 μL aliquot of appropriate dilution in DMSO is added to 150 μL of cells. On day 5, ATPlite 1 step Luminescence Assay System (Perkin Elmer #6016739) is brought to room temperature along with the cell cultures. ATPlite is added to each well as follows: • BaF3: 25 μL per well. • MV-4-11: 40 μL per well. • SKNSH: 20 μL per well. The cells are incubated at room temperature for 10 minutes, then luminescence is read on Safire reader. The measured luminescence correlates directly with cell number, such that the reading as a function of compound concentration is used to determine the IC50 value.
# It is understood that the results of these assays may vary as assay conditions are varied. Inhibition levels determined under the conditions described herein represent a relative activity for the compounds tested under the specific conditions employed. The cell based assays are likely to show variability due to the complexity of the system and the sensitivity thereof to any changes in the assay conditions. […] Results for compounds that are tested and show substantially no inhibition below the highest tested concentration are represented as “-” in the tables below. In some instances, the compounds were not tested in all of the assays, or assay results were not valid, as indicated by NA in the tables below.
# TrkA kinase, sequence (P04629 33-796): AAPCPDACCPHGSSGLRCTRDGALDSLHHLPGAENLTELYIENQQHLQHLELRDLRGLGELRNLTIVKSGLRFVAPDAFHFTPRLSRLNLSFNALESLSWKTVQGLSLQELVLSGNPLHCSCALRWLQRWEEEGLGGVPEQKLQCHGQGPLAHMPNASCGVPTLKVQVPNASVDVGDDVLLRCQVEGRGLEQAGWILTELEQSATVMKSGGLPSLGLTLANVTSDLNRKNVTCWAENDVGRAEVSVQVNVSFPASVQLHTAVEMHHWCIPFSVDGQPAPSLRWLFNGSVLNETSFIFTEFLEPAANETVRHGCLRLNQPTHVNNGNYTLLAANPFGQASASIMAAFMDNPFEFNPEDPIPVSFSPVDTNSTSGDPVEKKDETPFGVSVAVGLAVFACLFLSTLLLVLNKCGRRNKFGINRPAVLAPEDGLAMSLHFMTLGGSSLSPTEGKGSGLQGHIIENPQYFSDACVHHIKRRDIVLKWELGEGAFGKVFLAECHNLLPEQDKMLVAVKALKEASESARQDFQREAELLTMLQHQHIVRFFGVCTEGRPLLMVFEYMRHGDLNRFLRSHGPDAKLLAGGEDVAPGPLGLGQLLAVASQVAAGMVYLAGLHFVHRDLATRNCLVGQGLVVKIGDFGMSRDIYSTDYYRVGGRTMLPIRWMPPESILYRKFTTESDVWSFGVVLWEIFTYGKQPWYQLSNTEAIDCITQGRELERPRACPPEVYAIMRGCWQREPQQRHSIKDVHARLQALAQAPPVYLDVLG
IC50 [1],IC50 [2],IC50 [3],IC50 [4],Structure (SMILES)
< 0.1 µM,< 0.01 µM,< 0.1 µM,< 10 µM,"COc1ccc(Nc2ccc(Cc3c[nH]c4ncc(C)cc34)c(F)n2)cn1 [Compound P-3019, [6-fluoro-5-(5-methyl-1H-pyrrolo[2,3-b]pyridin-3-ylmethyl)-pyridin-2-yl]-(6-methoxy-pyridin-3-yl)-amine]"
< 0.1 µM,< 0.01 µM,< 0.1 µM,< 1 µM,"COc1ccc(Nc2ncc(Cc3c[nH]c4ncc(C)cc34)cn2)cn1 [Compound P-3020, (6-Methoxy-pyridin-3-yl)-[5-(5-methyl-1H-pyrrolo[2,3-b]pyridin-3-ylmethyl)-pyrimidin-2-yl]-amine]"
< 0.1 µM,< 0.01 µM,< 0.1 µM,< 1 µM,"COc1ccc(Nc2ncc(Cc3c[nH]c4ncc(C)cc34)cn2)cc1 [Compound P-3021, (4-Methoxy-phenyl)-[5-(5-methyl-1H-pyrrolo[2,3-b]pyridin-3-ylmethyl)-pyrimidin-2-yl]-amine]"
< 1 µM,< 0.01 µM,< 0.1 µM,< 1 µM,"CCCOc1ccc(Nc2ncc(Cc3c[nH]c4ncc(C)cc34)cn2)cc1 [Compound P-3024, [5-(5-Methyl-1H-pyrrolo[2,3-b]pyridin-3-ylmethyl)-pyrimidin-2-yl]-(4-propoxy-phenyl)-amine]"
< 0.1 µM,< 0.01 µM,< 0.01 µM,< 1 µM,"CCc1ccc(Nc2ncc(Cc3c[nH]c4ncc(C)cc34)cn2)cc1 [Compound P-3025, (4-Ethyl-phenyl)-[5-(5-methyl-1H-pyrrolo[2,3-b]pyridin-3-ylmethyl)-pyrimidin-2-yl]-amine]"
> 1 µM,< 0.01 µM,< 0.1 µM,> 25 µM,"CCOc1ccc(Nc2ncc(Cc3c[nH]c4ncc(C)cc34)cn2)cc1 [Compound P-3026, (4-Ethoxy-phenyl)-[5-(5-methyl-1H-pyrrolo[2,3-b]pyridin-3-ylmethyl)-pyrimidin-2-yl]-amine]"
< 1 µM,< 0.01 µM,< 0.1 µM,> 25 µM,"CCOc1ccc(Nc2ncc(Cc3c[nH]c4ncc(C)cc34)cn2)cn1 [Compound P-3027, (6-Ethoxy-pyridin-3-yl)-[5-(5-methyl-1H-pyrrolo[2,3-b]pyridin-3-ylmethyl)-pyrimidin-2-yl]-amine]"
< 0.1 µM,< 1 µM,< 0.1 µM,< 20 µM,"Cc1cnc2[nH]cc(Cc3cnc(Nc4cc(-c5ccc(F)cc5)n[nH]4)nc3)c2c1 [Compound P-3028, [5-(4-Fluoro-phenyl)-2H-pyrazol-3-yl]-[5-(5-methyl-1H-pyrrolo[2,3-b]pyridin-3-ylmethyl)-pyrimidin-2-yl]-amine]"
< 1 µM,< 0.1 µM,< 1 µM,> 25 µM,"Cc1cnc2[nH]cc(Cc3cnc(Nc4cc(C(C)(C)C)n[nH]4)nc3)c2c1 [Compound P-3029, (5-tert-Butyl-2H-pyrazol-3-yl)-[5-(5-methyl-1H-pyrrolo[2,3-b]pyridin-3-ylmethyl)-pyrimidin-2-yl]-amine]"
< 0.01 µM,< 0.01 µM,< 0.01 µM,< 0.1 µM,"Cc1cnc2[nH]cc(Cc3cnc(Nc4ccc(C(C)(C)C)cc4)nc3)c2c1 [Compound P-3030, (4-tert-Butyl-phenyl)-[5-(5-methyl-1H-pyrrolo[2,3-b]pyridin-3-ylmethyl)-pyrimidin-2-yl]-amine amine]"
–,> 1 µM,> 1 µM,> 25 µM,"Cc1cnc2[nH]cc(Cc3cnc(Nc4cc(C(F)(F)F)n[nH]4)nc3)c2c1 [Compound P-3037, [5-(5-Methyl-1H-pyrrolo[2,3-b]pyridin-3-ylmethyl)-pyrimidin-2-yl]-(5-trifluoromethyl-2H-pyrazol-3-yl)-amine]"
–,< 1 µM,< 1 µM,> 25 µM,"Cc1cnc2[nH]cc(Cc3cnc(Nc4cc(OC(C)C)n[nH]4)nc3)c2c1 [Compound P-3038, (5-Isopropoxy-2H-pyrazol-3-yl)-[5-(5-methyl-1H-pyrrolo[2,3-b]pyridin-3-ylmethyl)-pyrimidin-2-yl]-amine]"
